Source: patent US20090281054A1, “COMPOSITIONS AND METHODS COMPRISING CAPURAMYCIN ANALOGUES” (priority 2008, published 2009)
Converted amounts (≈) assume the structure as drawn. Like-named read-outs stand apart in the source and are kept apart here.

Experiments:
[1] = target: translocase I (Escherichia coli, UniProt P0A6W3); assay: IC50 against translocase I; type: biochemical
[2] = system: M. kansaii (MKN; ATCC12478 & 35775); assay: MIC by microdilution method in 7H9 broth; type: cell-based, M. kansasii; settings: Mycobacterium kansasii, read-out: MIC
[3] = system: MSMG and MTB (H37Rv); assay: Minimum bactericidal concentration (MBC), MBC/MIC ratio; type: cell-based, Mycobacterium tuberculosis; M. smegmatis
[4] = system: M. avium complex (MAC); assay: MIC by microdilution method in 7H9 broth; type: cell-based; settings: Mycobacterium avium; for MIC90: value in square brackets, read-out: MIC90
[5] = system: MTB H37Rv; assay: MIC by broth microdilution; type: cell-based; settings: Mycobacterium tuberculosis
Description: (§1) The SQ997 amino acid derivatives shown in Table 2 were tested for in vitro activity against MTB, cytotoxicity for uninfected J774 cells to determine IC50, and for intracellular activity in the macrophage assay (Table 15). […] Cell viability remained similar to SQ997, or slightly better as cell morphologic changes were reduced.

[6] = system: M. abscessus (MAB; ATCC 700869); assay: MIC by microdilution method in 7H9 broth; type: cell-based; settings: Mycobacteroides abscessus, ATCC700869; MAB 700869; read-out: MIC
[7] = in vitro; type: cell-based; settings: mouse
Description: as §1

[8] = system: MTB cultures; assay: Induction of morphological changes and bacterial disintegration; type: cell-based, Mycobacterium tuberculosis; settings: for Turbidity of MTB cultures: within 2 days of exposure
Excerpt: Induction of morphological changes and bacterial disintegration. […] Tubercle bacilli exposed to CM analogues were typically club-shaped, with deeply stained swollen ends (see Reddy et al. Antimicrob. Agents Chemother., 2008, 52(2), 719-721).

[9] = system: MTB; assay: In vivo efficacy in mouse model of chronic TB disease (lung CFU); settings: mice treated for 3 wk, starting 3 wk after infection, gav, ip, iv
Description: In vivo activity against MTB. In vivo efficacy of CM analogues was investigated in a mouse model of chronic TB disease (FIG. 2). Three wk after infection, mice were treated for 3 wk with the drugs by gavage (gav), intraperitoneal injection (ip), intravenous injection (iv), or intranasal (in) routes. Efficacy was analyzed by determining Colony-Forming Units (CFU) in lungs. […] Each achieved a decrease of 1-log10 lung CFU compared to the late control [LC] CFU by at least one route, which varied for each drug.

[10] = system: Mycobacterium tuberculosis (MTB); assay: MIC by BACTEC radiometric method; type: cell-based; settings: for MIC90: MTB
Description: Determination of MIC. MIC of drugs for laboratory and clinical strains of Mycobacterium tuberculosis (MTB) was determined by BACTEC radiometric method as described by Heifets (1991), “Antituberculosis Drugs: Antimicrobial Activity in vitro, Drug Susceptibility in the Chemotherapy of Microbacterial Infections, Boca Raton, Fla., CRC Press and Luna-Herrera et al., Antimicrob. Agents and Chemother. 1995, 39(2), 440-444. […] The minimal inhibitory concentration (MIC) was defined as the lowest concentrations of drug that caused GI equal to or less than that of the 1/100 dilution growth control. Capuramycin analogues SQ641, SQ922 and SQ997 were tested at concentrations ranging from […].

[11] = system: M. smegmatis (MSMG; MC2155); assay: MIC by microdilution method in 7H9 broth; type: cell-based; settings: MSMG MC^2155, 72 hr
[12] = system: MTB inside macrophages; assay: Intracellular activity of DMSO-solubilized drug in MTB infected macrophages; type: cell-based, Mycobacterium tuberculosis; settings: for Mean RLU at Day 7: Day 0 RLU 443, Control Day 7 4251
[13] = ATCC 12478 / ATCC 35775, MKN ATCC35775
[14] = MAC strain NIH C1-1, read-out: MIC
[15] = MAC strain NIH C1-2, read-out: MIC
[16] = MAC strain NIH C1-3, read-out: MIC
[17] = MAC strain NIH C1-4, read-out: MIC
[18] = Mycolicibacterium smegmatis, MC2155|MC^2155, read-out: MIC

Sequence of translocase I (P0A6W3 whole entry): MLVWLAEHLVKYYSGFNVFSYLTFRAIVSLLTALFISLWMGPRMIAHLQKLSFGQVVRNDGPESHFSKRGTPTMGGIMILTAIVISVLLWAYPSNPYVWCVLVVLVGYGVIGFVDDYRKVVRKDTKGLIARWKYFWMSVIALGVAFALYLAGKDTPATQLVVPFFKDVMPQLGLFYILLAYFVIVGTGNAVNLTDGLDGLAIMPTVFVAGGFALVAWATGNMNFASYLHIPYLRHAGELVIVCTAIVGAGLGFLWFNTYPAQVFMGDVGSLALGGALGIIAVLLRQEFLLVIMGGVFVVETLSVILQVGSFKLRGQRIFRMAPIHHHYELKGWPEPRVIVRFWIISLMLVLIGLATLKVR

CO[C@H]1[C@@H](O)[C@H](n2ccc(=O)[nH]c2=O)O[C@@H]1[C@@H](O[C@H]1OC(C(=O)N[C@H]2CCC[C@@H](C)NC2=O)=C[C@H](O)[C@@H]1O)C(N)=O [SQ997]
IC50 against translocase I [1]: 0.01 µg/mL (≈ 0.0171 µM)
MIC [2, 13]: 4 µg/mL (≈ 6.85 µM)
MIC ([2]; MKN ATCC12478): 16 µg/mL (≈ 27.4 µM)
MBC/MIC ratio [3]: 1
MIC ([4]; 336 h, MAC isolates, 2 wk, read-out: MIC (range)): 4 to 32 µg/mL (≈ 6.85 to 54.8 µM)
MIC ([4]; MAC strain 100, read-out: MIC): 16 µg/mL (≈ 27.4 µM)
MIC ([4]; MAC strain 101, read-out: MIC): 8 µg/mL (≈ 13.7 µM)
MIC ([4]; MAC strain 104, read-out: MIC): 16 µg/mL (≈ 27.4 µM)
MIC ([4]; MAC strain 109, read-out: MIC): 8 µg/mL (≈ 13.7 µM)
MIC ([4]; MAC strain A5, read-out: MIC): 16 µg/mL (≈ 27.4 µM)
MIC ([4]; MAC strain JSH1, read-out: MIC): 32 µg/mL (≈ 54.8 µM)
MIC [4, 14]: 8 µg/mL (≈ 13.7 µM)
MIC [4, 15]: 4 µg/mL (≈ 6.85 µM)
MIC [4, 16]: 16 µg/mL (≈ 27.4 µM)
MIC [4, 17]: 8 µg/mL (≈ 13.7 µM)
MIC90 ([4]; MAC isolates): 16 µg/mL (≈ 27.4 µM)
MIC [5]: 8 µg/mL (≈ 13.7 µM)
MIC [6]: 16 µg/mL (≈ 27.4 µM)
IC50 [7]: > 32 µg/mL
Bacterial disintegration / clearance of MTB cultures [8]: rapid bacterial disintegration
Turbidity of MTB cultures [8]: marked fall in the turbidity
Toxicity (4-day IV injections at 1000 mg/kg/day): No toxicity
Routes by which replication of MTB in lungs was prevented (vs early control) [9]: gav and iv
MIC ([10]; H37RV, MTB strain H37Rv): 8 µg/mL (≈ 13.7 µM)
MIC90 [10]: 16 µg/mL (≈ 27.4 µM)
MIC ([10]; MTB strain 16): 16 µg/mL (≈ 27.4 µM)
MIC ([10]; MTB strain 113): 16 µg/mL (≈ 27.4 µM)
MIC ([10]; MTB strain 158): 8 µg/mL (≈ 13.7 µM)
MIC ([10]; MTB strain 606): 16 µg/mL (≈ 27.4 µM)
MIC ([10]; MTB strain 847): 16 µg/mL (≈ 27.4 µM)
MIC ([10]; MTB strain 1351): 16 µg/mL (≈ 27.4 µM)
MIC ([10]; MTB strain 1407): 16 µg/mL (≈ 27.4 µM)
MIC ([10]; MTB strain 1498): 16 µg/mL (≈ 27.4 µM)
MIC ([10]; MTB strain 1665): 16 µg/mL (≈ 27.4 µM)
MIC ([10]; MTB strain 1703): 16 µg/mL (≈ 27.4 µM)
MIC ([10]; MTB strain 1760): > 16 µg/mL
MIC ([10]; MTB strain 1782): > 16 µg/mL
MIC ([10]; MTB strain 1901): 16 µg/mL (≈ 27.4 µM)
MIC ([10]; MTB strain 1921): 16 µg/mL (≈ 27.4 µM)
MIC ([10]; MTB strain 2224): 16 µg/mL (≈ 27.4 µM)
MIC ([10]; MTB strain 2554): 16 µg/mL (≈ 27.4 µM)
MIC ([10]; MTB strain 2693): 16 µg/mL (≈ 27.4 µM)
MIC ([10]; MTB strain 8266): 8 µg/mL (≈ 13.7 µM)
MIC ([10]; MTB strain 8642): 16 µg/mL (≈ 27.4 µM)
MIC [11]: 8 µg/mL (≈ 13.7 µM)
MIC [11, 18]: 8 µg/mL (≈ 13.7 µM)

CO[C@H]1[C@@H](O)[C@H](n2ccc(=O)[nH]c2=O)O[C@@H]1[C@@H](O[C@H]1OC(C(=O)Nc2ccc(F)c(F)c2)=C[C@H](O)[C@@H]1O)C(N)=O [SQ922]
IC50 against translocase I [1]: 0.009 µg/mL (≈ 0.0158 µM)
MIC [2, 13]: 1 µg/mL (≈ 1.75 µM)
MIC ([2]; MKN ATCC12478): 16 µg/mL (≈ 28 µM)
MBC/MIC ratio [3]: 1
MIC ([4]; MAC strain 100, read-out: MIC): 4 µg/mL (≈ 7.01 µM)
MIC ([4]; MAC strain 101, read-out: MIC): 1 µg/mL (≈ 1.75 µM)
MIC ([4]; MAC strain 104, read-out: MIC): 4 µg/mL (≈ 7.01 µM)
MIC ([4]; MAC strain 109, read-out: MIC): 0.5 µg/mL (≈ 0.876 µM)
MIC ([4]; MAC strain A5, read-out: MIC): 2 µg/mL (≈ 3.51 µM)
MIC ([4]; MAC strain JSH1, read-out: MIC): 16 µg/mL (≈ 28 µM)
MIC [4, 14]: > 32 µg/mL
MIC [4, 15]: 1 µg/mL (≈ 1.75 µM)
MIC [4, 16]: 8 µg/mL (≈ 14 µM)
MIC [4, 17]: 2 µg/mL (≈ 3.51 µM)
MIC90 ([4]; MAC isolates): 16 µg/mL (≈ 28 µM)
MIC [6]: 16 µg/mL (≈ 28 µM)
Bacterial disintegration / clearance of MTB cultures [8]: rapid bacterial disintegration
Turbidity of MTB cultures [8]: marked fall in the turbidity
Toxicity (4-day IV injections at 500 mg/kg/day): No toxicity
Routes by which replication of MTB in lungs was prevented (vs early control) [9]: most routes
Mean RLU at Day 7 ([12]; 2 μg/ml): 1164 RLU
Mean RLU at Day 7 ([12]; 4 μg/ml): 1080 RLU
Mean RLU at Day 7 ([12]; 8 μg/ml): 1111 RLU
Mean RLU at Day 7 ([12]; 16 μg/ml): 496 RLU
Mean RLU at Day 7 ([12]; 32 μg/ml): 311 RLU
Mean RLU at Day 7 ([12]; 64 μg/ml): 134 RLU
Intracellular activity (FIG. 1) ([12]; 1× and 2× MIC): showed intracellular activities
MIC ([10]; H37RV, MTB strain H37Rv): 2 µg/mL (≈ 3.51 µM)
MIC90 [10]: 8 µg/mL (≈ 14 µM)
MIC ([10]; MTB strain 16): 8 µg/mL (≈ 14 µM)
MIC ([10]; MTB strain 113): 2 µg/mL (≈ 3.51 µM)
MIC ([10]; MTB strain 158): 2 µg/mL (≈ 3.51 µM)
MIC ([10]; MTB strain 606): 4 µg/mL (≈ 7.01 µM)
MIC ([10]; MTB strain 847): 4 µg/mL (≈ 7.01 µM)
MIC ([10]; MTB strain 1351): 2 µg/mL (≈ 3.51 µM)
MIC ([10]; MTB strain 1407): 2 µg/mL (≈ 3.51 µM)
MIC ([10]; MTB strain 1498): 4 µg/mL (≈ 7.01 µM)
MIC ([10]; MTB strain 1665): 4 µg/mL (≈ 7.01 µM)
MIC ([10]; MTB strain 1703): 8 µg/mL (≈ 14 µM)
MIC ([10]; MTB strain 1760): 8 µg/mL (≈ 14 µM)
MIC ([10]; MTB strain 1782): 8 µg/mL (≈ 14 µM)
MIC ([10]; MTB strain 1901): 4 µg/mL (≈ 7.01 µM)
MIC ([10]; MTB strain 1921): 4 µg/mL (≈ 7.01 µM)
MIC ([10]; MTB strain 2224): 4 µg/mL (≈ 7.01 µM)
MIC ([10]; MTB strain 2554): 4 µg/mL (≈ 7.01 µM)
MIC ([10]; MTB strain 2693): 4 µg/mL (≈ 7.01 µM)
MIC ([10]; MTB strain 8266): 2 µg/mL (≈ 3.51 µM)
MIC ([10]; MTB strain 8642): 2 µg/mL (≈ 3.51 µM)
MIC [11]: 2 µg/mL (≈ 3.51 µM)
MIC [11, 18]: 2 µg/mL (≈ 3.51 µM)
